The first test has as its target T1, human full-length MKNK1 (Homo sapiens, UniProt Q9BUB5, T385D).
T1 construct: GST (N); purchased Carna Biosciences 02-145; host or cells: insect cells (baculovirus expression system)
The test can be described thus: MKNK1 kinase high ATP assay (TR-FRET). Format: biochemical.
Conditions: not given
As to the method:
MKNK1 Kinase High ATP Assay
MKNK1-inhibitory activity at high ATP of compounds of the present invention after their preincubation with MKNK1 was quantified employing the TR-FRET-based MKNK1 high ATP assay as described in the following paragraphs.
As substrate for the kinase reaction the biotinylated peptide biotin-Ahx-[…] (C-terminus in amide form) was used, which can be purchased e.g. from the company Biosyntan (Berlin-Buch, Germany).
For the assay 50 nL of a 100 fold concentrated solution of the test compound in DMSO was pipetted into a black low volume 384 well microtiter plate (Greiner Bio-One, Frickenhausen, Germany), 2 μL of a solution of MKNK1 in aqueous assay buffer [50 mM HEPES pH 7.5, 5 mM MgCl2, 1.0 mM dithiothreitol, 0.005% (v/v) Nonidet-P40 (Sigma)] was added and the mixture was incubated for 15 min at 22° C. to allow pre-binding of the test compounds to the enzyme before the start of the kinase reaction. Then the kinase reaction was started by the addition of 3 μL of a solution of adenosine-tri-phosphate (ATP, 3.3 mM=>final conc. in the 5 μL assay volume is 2 mM) and substrate (0.1 μM=>final conc. in the 5 μL assay volume is 0.06 μM) in assay buffer and the resulting mixture was incubated for a reaction time of 30 min at 22° C. The concentration of MKNK1 was adjusted depending of the activity of the enzyme lot and was chosen appropriate to have the assay in the linear range, typical concentrations were in the range of 0.003 μg/mL. The reaction was stopped by the addition of 5 μL of a solution of TR-FRET detection reagents (5 nM streptavidine-XL665 [Cisbio Bioassays, Codolet, France] and 1 nM anti-ribosomal protein S6 (pSer236)-antibody from Invitrogen [#44921G] and 1 nM LANCE EU-W1024 labeled ProteinG [Perkin-Elmer, product no. AD0071]) in an aqueous EDTA-solution (100 mM EDTA, 0.1% (w/v) bovine serum albumin in 50 mM HEPES pH 7.5).
The resulting mixture was incubated for 1 h at 22° C. to allow the formation of complex between the phosphorylated biotinylated peptide and the detection reagents. Subsequently the amount of phosphorylated substrate was evaluated by measurement of the resonance energy transfer from the Eu-chelate to the streptavidine-XL. Therefore, the fluorescence emissions at 620 nm and 665 nm after excitation at 350 nm were measured in a TR-FRET reader, e.g. a Rubystar (BMG Labtechnologies, Offenburg, Germany) or a Viewlux (Perkin-Elmer). The ratio of the emissions at 665 nm and at 622 nm was taken as the measure for the amount of phosphorylated substrate.
T1 sequence (Q9BUB5 1-424 isoform Q9BUB5-2 T344D): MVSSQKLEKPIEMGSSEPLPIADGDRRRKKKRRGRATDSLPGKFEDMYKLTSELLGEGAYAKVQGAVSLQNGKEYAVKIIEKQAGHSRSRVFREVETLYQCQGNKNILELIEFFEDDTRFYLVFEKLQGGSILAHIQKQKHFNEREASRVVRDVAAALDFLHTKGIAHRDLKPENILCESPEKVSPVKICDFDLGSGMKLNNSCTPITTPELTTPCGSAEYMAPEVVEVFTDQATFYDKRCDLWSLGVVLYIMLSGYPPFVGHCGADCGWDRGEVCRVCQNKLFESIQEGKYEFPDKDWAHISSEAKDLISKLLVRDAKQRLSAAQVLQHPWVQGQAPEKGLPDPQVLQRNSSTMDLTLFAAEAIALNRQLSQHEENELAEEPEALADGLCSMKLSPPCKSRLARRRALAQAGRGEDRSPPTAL
Take `CCOc1cc2[nH]ncc2cc1Nc1ncnc2sc3c(c12)CC[C@@H](C(=O)N1CCC(=O)CC1)C3` [Example 69, 1-({(7R)-4-[(6-Ethoxy-1H-indazol-5-yl)amino]-5,6,7,8-tetrahydro[1]benzothieno[2,3-d]pyrimidin-7-yl}carbonyl)piperidin-4-one]: the IC50 (as a rule, the midpoint of a concentration-inhibition curve) came to 2.5 nM.

Still in this test, the particulars now being: Table 1; MKNK1 kinase high ATP assay, 2 mM ATP; read-out: MKNK1 IC50.
Take `COc1cc2[nH]ncc2cc1Nc1ncnc2sc3c(c12)CC[C@H](C(=O)N(C)C(C)C)C3` [Example 26, (7S)-4-[(6-Methoxy-1H-indazol-5-yl)amino]-N-methyl-N-(propan-2-yl)-5,6,7,8-tetrahydro[1]benzothieno[2,3-d]pyrimidine-7-carboxamide]: the IC50 came to 0.2 nM.

As to `COCCN(C)C(=O)[C@H]1CCc2c(sc3ncnc(Nc4cc5cn[nH]c5cc4Cl)c23)C1` [Example 230, (7S)-4-[(6-Chloro-1H-indazol-5-yl)amino]-N-(2-methoxyethyl)-N-methyl-5,6,7,8-tetrahydro[1]benzothieno[2,3-d]pyrimidine-7-carboxamide], the IC50 is 2.5 nM.

Take `C[C@H]1COCCN1C(=O)[C@H]1CCc2c(sc3ncnc(Nc4cc5cn[nH]c5cc4N4CCC(N(C)C)CC4)c23)C1` [Example 135, [(7S)-4-({6-[4-(Dimethylamino)piperidin-1-yl]-1H-indazol-5-yl}amino)-5,6,7,8-tetrahydro[1]benzothieno[2,3-d]pyrimidin-7-yl][(3S)-3-methylmorpholin-4-yl]methanone]: the 50% inhibitory concentration (IC50) is 14.1 nM.

Take `COc1cc2[nH]ncc2cc1Nc1ncnc2sc3c(c12)CC[C@H](C(=O)N(C)CCO)C3` [Example 38, (7S)—N-(2-Hydroxyethyl)-4-[(6-methoxy-1H-indazol-5-yl)amino]-N-methyl-5,6,7,8-tetrahydro[1]benzothieno[2,3-d]pyrimidine-7-carboxamide]: the IC50 amounted to 0.3 nM.

`COc1cc2[nH]ncc2cc1Nc1ncnc2sc3c(c12)CC[C@H](C(=O)N1CCN(C)CC1)C3` [Example 48, {(7S)-4-[(6-Methoxy-1H-indazol-5-yl)amino]-5,6,7,8-tetrahydro[1]benzothieno[2,3-d]pyrimidin-7-yl}(4-methylpiperazin-1-yl)methanone]: the IC50 is 0.4 nM.

As to `CN(C)C(=O)[C@H]1CCc2c(sc3ncnc(Nc4ccc5[nH]ncc5c4)c23)C1` [Example 1, (7S)-4-(1H-Indazol-5-ylamino)-N,N-dimethyl-5,6,7,8-tetrahydro[1]benzothieno[2,3-d]pyrimidine-7-carboxamide], the half-maximal inhibitory concentration (IC50) was found to be 14.3 nM.

As for `CCOc1cc2[nH]ncc2cc1Nc1ncnc2sc3c(c12)CC[C@H](C(=O)N1CC[C@@H](N(C)C)C1)C3` [Example 190, [(3R)-3-(Dimethylamino)pyrrolidin-1-yl]{(7S)-4-[(6-ethoxy-1H-indazol-5-yl)amino]-5,6,7,8-tetrahydro[1]benzothieno[2,3-d]pyrimidin-7-yl}methanone], the IC50 was determined as 0.3 nM.

As for `C[C@@H]1COCCN1C(=O)[C@H]1CCc2c(sc3ncnc(Nc4cc5cn[nH]c5cc4N4CCC(N(C)C)CC4)c23)C1` [Example 136, [(7S)-4-({6-[4-(Dimethylamino)piperidin-1-yl]-1H-indazol-5-yl}amino)-5,6,7,8-tetrahydro[1]benzothieno[2,3-d]pyrimidin-7-yl][(3R)-3-methylmorpholin-4-yl]methanone], the IC50 worked out at 24 nM.

Turning to `CSc1cc2[nH]ncc2cc1Nc1ncnc2sc3c(c12)CC[C@H](C(=O)N1CCOC[C@@H]1C)C3` [Example 254, [(3S)-3-Methylmorpholin-4-yl][(7S)-4-{[6-(methylsulfanyl)-1H-indazol-5-yl]amino}-5,6,7,8-tetrahydro[1]benzothieno[2,3-d]pyrimidin-7-yl]methanone], the IC50 came to 1.3 nM.

Consider `C[C@@H]1COCCN1C(=O)[C@H]1CCc2c(sc3ncnc(Nc4cc5cn[nH]c5cc4Br)c23)C1` [Example 232, {(7S)-4-[(6-Bromo-1H-indazol-5-yl)amino]-5,6,7,8-tetrahydro[1]benzothieno[2,3-d]pyrimidin-7-yl}[(3R)-3-methylmorpholin-4-yl]methanone], for which the IC50 was 5.8 nM.

`CC(C)(C)COc1cc2[nH]ncc2cc1Nc1ncnc2sc3c(c12)CC[C@H](C(=O)N1CCOCC1)C3` [Example 279, [(7S)-4-{[6-(2,2-Dimethylpropoxy)-1H-indazol-5-yl]amino}-5,6,7,8-tetrahydro[1]benzothieno[2,3-d]pyrimidin-7-yl](morpholin-4-yl)methanone]: the 50% inhibitory concentration (IC50) came out at 84.2 nM.

For `C[C@H]1COCCN1C(=O)[C@H]1CCc2c(sc3ncnc(Nc4cc5cn[nH]c5cc4F)c23)C1` [Example 227, {(7S)-4-[(6-Fluoro-1H-indazol-5-yl)amino]-5,6,7,8-tetrahydro[1]benzothieno[2,3-d]pyrimidin-7-yl}[(3S)-3-methylmorpholin-4-yl]methanone], the half-maximal inhibitory concentration (IC50) turned out to be 7 nM.

With `C[C@@H]1COCCN1C(=O)[C@H]1CCc2c(sc3ncnc(Nc4cc5cn[nH]c5cc4O[C@@H](C)CN)c23)C1` [Example 148, {(7S)-4-[(6-{[(2S)-1-Aminopropan-2-yl]oxy}-1H-indazol-5-yl)amino]-5,6,7,8-tetrahydro[1]benzothieno[2,3-d]pyrimidin-7-yl}[(3R)-3-methylmorpholin-4-yl]methanone], the half-inhibitory concentration (IC50) was 4.2 nM.

Take `CCOc1cc2[nH]ncc2cc1Nc1ncnc2sc3c(c12)CC[C@H](C(=O)N1C[C@@H](O)[C@H](O)C1)C3` [Example 75, [(3R,4R)-3,4-Dihydroxypyrrolidin-1-yl]{(7S)-4-[(6-ethoxy-1H-indazol-5-yl)amino]-5,6,7,8-tetrahydro[1]benzothieno[2,3-d]pyrimidin-7-yl}methanone]: the half-maximal inhibitory concentration (IC50) amounted to 0.3 nM.

In the case of `CC(C)Oc1cc2[nH]ncc2cc1Nc1ncnc2sc3c(c12)CC[C@H](C(=O)N(C)CCO)C3` [Example 90, (7S)—N-(2-Hydroxyethyl)-N-methyl-4-{[6-(propan-2-yloxy)-1H-indazol-5-yl]amino}-5,6,7,8-tetrahydro[1]benzothieno[2,3-d]pyrimidine-7-carboxamide], the IC50 amounted to 0.6 nM.

As to `COc1cc2[nH]ncc2cc1Nc1ncnc2sc3c(c12)CC[C@H](C(=O)N1CC=CC1)C3` [Example 206, 2,5-Dihydro-1H-pyrrol-1-yl{(7S)-4-[(6-methoxy-1H-indazol-5-yl)amino]-5,6,7,8-tetrahydro[1]benzothieno[2,3-d]pyrimidin-7-yl}methanone], the concentration for half-maximal inhibition (IC50) came to 0.9 nM.

Take `COCCN(C)C(=O)[C@H]1CCc2c(sc3ncnc(Nc4cc5cn[nH]c5cc4OC)c23)C1` [Example 217, (7S)—N-(2-Methoxyethyl)-4-[(6-methoxy-1H-indazol-5-yl)amino]-N-methyl-5,6,7,8-tetrahydro[1]benzothieno[2,3-d]pyrimidine-7-carboxamide]: the concentration for half-maximal inhibition (IC50) turned out to be 0.3 nM.

In the case of `COc1cc2[nH]ncc2cc1Nc1ncnc2sc3c(c12)CC[C@H](C(=O)N(C)CC(C)(C)C)C3` [Example 177, (7S)—N-(2,2-Dimethylpropyl)-4-[(6-methoxy-1H-indazol-5-yl)amino]-N-methyl-5,6,7,8-tetrahydro[1]benzothieno[2,3-d]pyrimidine-7-carboxamide], the IC50 worked out at 2.6 nM.

On to `C[C@@H](N)COc1cc2[nH]ncc2cc1Nc1ncnc2sc3c(c12)CC[C@H](C(=O)N(C)C)C3` [Example 147, (7S)-4-[(6-{[(2R)-2-Aminopropyl]oxy}-1H-indazol-5-yl)amino]-N,N-dimethyl-5,6,7,8-tetrahydro[1]benzothieno[2,3-d]pyrimidine-7-carboxamide], for which the IC50 came out at 5.6 nM.

`C[C@@H](CN)Oc1cc2[nH]ncc2cc1Nc1ncnc2sc3c(c12)CC[C@H](C(=O)N1CCOC[C@@H]1C)C3` [Example 145, {(7S)-4-[(6-{[(2S)-1-Aminopropan-2-yl]oxy}-1H-indazol-5-yl)amino]-5,6,7,8-tetrahydro[1]benzothieno[2,3-d]pyrimidin-7-yl}[(3S)-3-methylmorpholin-4-yl]methanone]: the IC50 amounted to 5.1 nM.

For the compound `CN(C)C(=O)[C@H]1CCc2c(sc3ncnc(Nc4cc5cn[nH]c5cc4OCC(C)(C)C)c23)C1` [Example 176, (7S)-4-{[6-(2,2-Dimethylpropoxy)-1H-indazol-5-yl]amino}-N,N-dimethyl-5,6,7,8-tetrahydro[1]benzothieno[2,3-d]pyrimidine-7-carboxamide], the half-inhibitory concentration (IC50) turned out to be 39.8 nM.

The test is the same for the next values; noted with them: Table 2; ratio of the IC50-value of an R-enantiomer and its corresponding S-enantiomer.
On to `COc1cc2[nH]ncc2cc1Nc1ncnc2sc3c(c12)CC[C@H](C(=O)N(C)C(C)C)C3` [Example 26, (7S)-4-[(6-Methoxy-1H-indazol-5-yl)amino]-N-methyl-N-(propan-2-yl)-5,6,7,8-tetrahydro[1]benzothieno[2,3-d]pyrimidine-7-carboxamide], for which the “Activity-Ratio MKNK1” value is on record as 172.9.

For `COc1cc2[nH]ncc2cc1Nc1ncnc2sc3c(c12)CC[C@H](C(=O)N(C)CCO)C3` [Example 38, (7S)—N-(2-Hydroxyethyl)-4-[(6-methoxy-1H-indazol-5-yl)amino]-N-methyl-5,6,7,8-tetrahydro[1]benzothieno[2,3-d]pyrimidine-7-carboxamide], the “Activity-Ratio MKNK1” value amounted to 28.1.

With `CN(C)C(=O)[C@H]1CCc2c(sc3ncnc(Nc4ccc5[nH]ncc5c4)c23)C1` [Example 1, (7S)-4-(1H-Indazol-5-ylamino)-N,N-dimethyl-5,6,7,8-tetrahydro[1]benzothieno[2,3-d]pyrimidine-7-carboxamide], the “Activity-Ratio MKNK1” value worked out at 8.3.

The values above are taken from patent US20160297833A1, “THIENOPYRIMIDINES AS MKNK1 AND MKNK2 INHIBITORS” (BAYER PHARMA AKTIENGESELLSCHAFT, priority 2013, published 2016).
